Measured values: the supplement of paper PMC11208160

Test: recombinant UMI read abundance after kanamycin selection (control-corrected) (log10(CPM+1)); higher = more efficient recombination; extreme values may be limits of the assay; sequences stand for … in AGTGCAGAGAAAATCGGCCAGTTTTCTCTGCCTGCAGTCCGCATGCCGTGGGACCCCTTGGGTTCTAACCTGTTGCCTAGATTTATGCAGCGGACTGCCTTTCTCCCAAAGTGATAAACCGG…AGGTTGGTTTCACT; site = the 11-nt donor
Method in brief: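 The measure is log10(CPM+1) for recombinant UMIs. These were PCR-amplified across the donor–target junction and sequenced after Escherichia coli carrying a donor and donor-binding-loop pair library and a target plasmid with T7-inducible IS621 bridge recombinase was plated on IPTG (0.07 mM) plus kanamycin or unselected. CPM were averaged over two replicates and scaled by control-derived factors.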
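Also: IS621 bridge recombinase in Escherichia coli cells against a fixed T5 target plasmid.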

Sequence	recombinant UMI read abundance (log10)
CAATACTCATGGACCGGTTTTCCCGGTAATCCGTATTTGAA (site CAATGCTCTTT)	0.0128
CAATACTCATGGACCGGTTTTCCCGGTAATCCGTATTTGAA (site CAATTCTCTTT)	0
CAATCACCATGGACCGGTTTTCCCGGTAATCCGTATTTGCT (site CAATCACCTAG)	0.00562
CAATCACCATGGACCGGTTTTCCCGGTAATCCGTATTTGCT (site CGATCATCTAG)	0
CAATCATCATGGACCGGTTTTCCCGGTAATCCGTATTTGCT (site CAATCATCTAG)	2.15
CAATCATCATGGACCGGTTTTCCCGGTAATCCGTATTTGCT (site CCATCATCTAG)	0.883
CAATCATCATGGACCGGTTTTCCCGGTAATCCGTATTTGCT (site CGATCATCTAG)	0.258
CAATCATCATGGACCGGTTTTCCCGGTAATCCGTATTTGCT (site CTATCATCTAG)	0.404
CAATCTGCATGGACCGGTTTTCCCGGTAATCCGTATTTGCT (site CAATCTGCTAG)	0.515
CAATGCCCATGGACCGGTTTTCCCGGTAATCCGTATTTGAA (site CAATGCACTTT)	0.00911
CAATGCCCATGGACCGGTTTTCCCGGTAATCCGTATTTGAA (site CAATGCCCTTT)	1
CAATGCCCATGGACCGGTTTTCCCGGTAATCCGTATTTGAA (site CAATGCGCTTT)	0.00922
CAATGCCCATGGACCGGTTTTCCCGGTAATCCGTATTTGAA (site CAATGCTCTTT)	1.62
CAATGCTCATGGACCGGTTTTCCCGGTAATCCGTATTTGAG (site CAATGCTCTAT)	1.46
CAATGCTCATGGACCGGTTTTCCCGGTAATCCGTATTTGAG (site CAATGCTCTCT)	2.2
CAATGCTCATGGACCGGTTTTCCCGGTAATCCGTATTTGAG (site CAATGCTCTGT)	0.535
CAATGCTCATGGACCGGTTTTCCCGGTAATCCGTATTTGAG (site CAATGCTCTTT)	0.812
CAATGGCCATGGACCGGTTTTCCCGGTAATCCGTATTTGCG (site CAATGGCCTCG)	0.00456
CAATGGTCATGGACCGGTTTTCCCGGTAATCCGTATTTGAA (site CAATGATCTTT)	2.68

Sequence	recombinant UMI read abundance (log10)
CAATGGTCATGGACCGGTTTTCCCGGTAATCCGTATTTGAA (site CAATGCTCTTT)	0.00506
CAATGGTCATGGACCGGTTTTCCCGGTAATCCGTATTTGAA (site CAATGGTCTTT)	2.39
CAATGGTCATGGACCGGTTTTCCCGGTAATCCGTATTTGAA (site CAATGTTCTTT)	0
CAATGTTCATGGACCGGTTTTCCCGGTAATCCGTATTTGAA (site CAATGATCTTT)	0.287
CAATGTTCATGGACCGGTTTTCCCGGTAATCCGTATTTGAA (site CAATGCTCTTT)	0.0108
CAATGTTCATGGACCGGTTTTCCCGGTAATCCGTATTTGAA (site CAATGGTCTTT)	0.0106
CAATGTTCATGGACCGGTTTTCCCGGTAATCCGTATTTGAA (site CAATGTTCTTT)	2.11
CAATTAACATGGACCGGTTTTCCCGGTAATCCGTATTTGCT (site CAATTAACTAG)	0.982
CAATTCACATGGACCGGTTTTCCCGGTAATCCGTATTTGGG (site CAAATCACTCC)	0.839
CAATTCACATGGACCGGTTTTCCCGGTAATCCGTATTTGGG (site CAACTCACTCC)	0.251
CAATTCACATGGACCGGTTTTCCCGGTAATCCGTATTTGGG (site CAAGTCACTCC)	0.0135
CAATTCACATGGACCGGTTTTCCCGGTAATCCGTATTTGGG (site CAATTCACTCC)	0.0754
CAATTCCCATGGACCGGTTTTCCCGGTAATCCGTATTTGCA (site CAATTCCCTAG)	0
CAATTCCCATGGACCGGTTTTCCCGGTAATCCGTATTTGCA (site CAATTCCCTCG)	0.00698
CAATTCCCATGGACCGGTTTTCCCGGTAATCCGTATTTGCA (site CAATTCCCTGG)	0
CAATTCCCATGGACCGGTTTTCCCGGTAATCCGTATTTGCA (site CAATTCCCTTG)	1.27
CAATTCTCATGGACCGGTTTTCCCGGTAATCCGTATTTGCT (site CAATTCACTAG)	0.75
CAATTCTCATGGACCGGTTTTCCCGGTAATCCGTATTTGCT (site CAATTCCCTAG)	0.421
CAATTCTCATGGACCGGTTTTCCCGGTAATCCGTATTTGCT (site CAATTCGCTAG)	0

Sequence	recombinant UMI read abundance (log10)
CAATTCTCATGGACCGGTTTTCCCGGTAATCCGTATTTGCT (site CAATTCTCTAG)	2.19
CACAACACATGGACCGGTTTTCCCGGTAATCCGTATTTGAC (site CACAACACTGT)	2.79
CACATGGCATGGACCGGTTTTCCCGGTAATCCGTATTTGGA (site CACATGGCTTC)	0.785
CACATGGCATGGACCGGTTTTCCCGGTAATCCGTATTTGGA (site CACCTGGCTTC)	0.346
CACATGGCATGGACCGGTTTTCCCGGTAATCCGTATTTGGA (site CACGTGGCTTC)	0.414
CACATGGCATGGACCGGTTTTCCCGGTAATCCGTATTTGGA (site CACTTGGCTTC)	0.388
CACATTGCATGGACCGGTTTTCCCGGTAATCCGTATTTGGT (site CACATTGCTAC)	1.69
CACCATGCATGGACCGGTTTTCCCGGTAATCCGTATTTGCG (site CACCATGCTCG)	1.28
CACCCCTCATGGACCGGTTTTCCCGGTAATCCGTATTTGCC (site CACACCTCTGG)	0
CACCCCTCATGGACCGGTTTTCCCGGTAATCCGTATTTGCC (site CACCCCTCTGG)	2.71
CACCCCTCATGGACCGGTTTTCCCGGTAATCCGTATTTGCC (site CACGCCTCTGG)	0
CACCCCTCATGGACCGGTTTTCCCGGTAATCCGTATTTGCC (site CACTCCTCTGG)	1.21
CACCGATCATGGACCGGTTTTCCCGGTAATCCGTATTTGGC (site CACCGATCTGC)	3.71
CACCGCCCATGGACCGGTTTTCCCGGTAATCCGTATTTGTT (site CACAGCCCTAA)	0.00423
CACCGCCCATGGACCGGTTTTCCCGGTAATCCGTATTTGTT (site CACCGCCCTAA)	0.033
CACCGCCCATGGACCGGTTTTCCCGGTAATCCGTATTTGTT (site CACGGCCCTAA)	0.0192
CACCGCCCATGGACCGGTTTTCCCGGTAATCCGTATTTGTT (site CACTGCCCTAA)	0.0163
CACCGCGCATGGACCGGTTTTCCCGGTAATCCGTATTTGTC (site CACCGCGCTGA)	2.33
CACCGTACATGGACCGGTTTTCCCGGTAATCCGTATTTGAT (site CACCGTACTAT)	1.95
